# Laboratory results reported in paper PMC6286348, “Inhibitor binding mode and allosteric regulation of Na^+-glucose symporters” (Nature Communications, 2018).
# Substitutions are numbered along the chain they refer to.
# Key:
# hSGLT1 T287C = biological target: T1, hSGLT1 T287C (Homo sapiens, UniProt P13866, T287C); design: method as in PMID 29087341; conditions: oocytes, 22 °C; cited from earlier work
# T1 construct: expressed in transfected cells; host or cells: Xenopus laevis oocytes injected with cRNA
# T1 sequence (P13866 1-664 T287C): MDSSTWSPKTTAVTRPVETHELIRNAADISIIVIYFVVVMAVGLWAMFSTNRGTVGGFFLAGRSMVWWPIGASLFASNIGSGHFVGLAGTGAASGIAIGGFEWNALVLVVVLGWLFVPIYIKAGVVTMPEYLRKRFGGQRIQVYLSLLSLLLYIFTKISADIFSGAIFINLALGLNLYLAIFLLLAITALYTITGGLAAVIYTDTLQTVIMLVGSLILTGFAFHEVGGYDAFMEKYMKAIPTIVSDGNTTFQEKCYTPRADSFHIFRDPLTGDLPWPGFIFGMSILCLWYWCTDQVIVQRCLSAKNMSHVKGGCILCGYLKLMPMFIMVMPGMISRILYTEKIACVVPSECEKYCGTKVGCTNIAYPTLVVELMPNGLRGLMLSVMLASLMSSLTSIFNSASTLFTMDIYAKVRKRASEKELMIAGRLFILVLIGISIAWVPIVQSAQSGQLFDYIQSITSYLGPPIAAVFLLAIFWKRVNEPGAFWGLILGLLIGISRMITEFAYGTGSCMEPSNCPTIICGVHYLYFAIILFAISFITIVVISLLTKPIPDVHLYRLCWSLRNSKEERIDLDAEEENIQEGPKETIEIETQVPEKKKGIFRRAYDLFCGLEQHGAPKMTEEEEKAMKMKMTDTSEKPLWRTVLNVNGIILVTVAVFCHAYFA
# hSGLT1 S393A/C = system: hSGLT1 S393A/C; design: method as in PMID 22159082; conditions: oocytes, 22 °C; cited from earlier work
# hSGLT1 T395A = biological target: T2, hSGLT1 T395A (Homo sapiens, UniProt P13866, T395A); experiment: SGLT current measurement in oocytes, hSGLT1 T395A; assay type: cell-based; conditions: 22 °C
# T2 construct: expressed in transfected cells; host or cells: Xenopus laevis oocytes injected with cRNA
# T2 sequence (P13866 1-664 T395A): T1 sequence (P13866 1-664 T287C) with C287T, T395A
# Protocol: Xenopus laevis (Nasco) oocytes (V–VI) were prepared as previously described[20] and injected with 50 nl of cRNA (1 μg/μl). […] Briefly, oocytes were incubated for 30 min in the presence of 50 μM αMDG (5 μM [^14C]αMDG) in a buffer containing (in mM) 100 NaCl, 2 KCl, 1 MgCl2, 1 CaCl2, and 10 N-(2-hydroxyethyl)piperazine-N′-(2-ethanesulfonic acid) (HEPES)/Tris (pH 7.5). After incubation, oocytes were rinsed thoroughly with ice-cold buffer containing (mM) 100 choline Cl^–, 2 KCl, 1 MgCl2, 1 CaCl2, and 10 HEPES/Tris (pH 7.5), individually lysed with 5% sodium dodecyl sulfate, and assayed for radioactivity.
# Injected oocytes were incubated at 18 °C, and after 3–4 days, two electrode voltage clamp experiments were performed as previously described. Briefly, SGLT inward glucose currents were measured as a function of the external Na^+ (0–100 mM NaCl), sugar (0–100 mM αMDG), and inhibitors (0.001–100 μM). Steady-state and hSGLT1 capacitive currents were recorded using voltage steps from a holding voltage, Vh of −60 mV, to voltages in the range of −180 to +50 mV in 20 mV increments. The apparent affinity of αMDG, K0.5, was estimated from plots of the inward current as a function of the external αMDG concentration. […] The Na^+-to-αMDG stoichiometry was determined from the reversal potential measurements using the Gibbs free energy as previously described. […]
# hSGLT1 Q457C = system: hSGLT1 Q457C; design: method as in PMID 22159082; conditions: oocytes, 22 °C; cited from earlier work
smiles,measurement,setting,value
[Na+] [Na^+],K0.5 Na^+,hSGLT1 T287C,6 ± 0.2[19] mM
same,K0.5 Na^+,hSGLT1 S393A/C,32 ± 3[20] mM
same,K0.5 Na^+,hSGLT1 T395A,104 ± 50 mM
same,K0.5 Na^+,hSGLT1 Q457C,34 ± 2[20] mM
